Data reported in ChEMBL document CHEMBL1146646, “Benzimidazoles as new potent and selective DP antagonists for the treatment of allergic rhinitis” (Bioorg Med Chem Lett, 2004).

Key:
[1] = biological target: T1, Prostaglandin D2 receptor (Homo sapiens, UniProt Q13258); test: Binding affinity against human recombinant […] D2 was determined using radioligand competition binding assay
T1 sequence (Q13258 whole entry): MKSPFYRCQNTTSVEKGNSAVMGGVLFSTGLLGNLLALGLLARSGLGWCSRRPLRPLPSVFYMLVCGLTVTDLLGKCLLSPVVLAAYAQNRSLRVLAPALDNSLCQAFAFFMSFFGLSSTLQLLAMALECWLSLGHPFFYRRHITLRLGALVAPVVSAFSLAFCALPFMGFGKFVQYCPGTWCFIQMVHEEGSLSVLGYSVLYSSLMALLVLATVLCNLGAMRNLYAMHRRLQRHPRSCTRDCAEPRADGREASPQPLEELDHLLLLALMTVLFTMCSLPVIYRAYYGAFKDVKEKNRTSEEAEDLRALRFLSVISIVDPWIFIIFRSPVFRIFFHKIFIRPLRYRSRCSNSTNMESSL

[2] = biological target: T2, Thromboxane A2 receptor (Homo sapiens, UniProt P21731); test: Binding affinity against human recombinant Thromboxane A2 receptor was determined using radioligand competition binding assay
T2 sequence (P21731 whole entry): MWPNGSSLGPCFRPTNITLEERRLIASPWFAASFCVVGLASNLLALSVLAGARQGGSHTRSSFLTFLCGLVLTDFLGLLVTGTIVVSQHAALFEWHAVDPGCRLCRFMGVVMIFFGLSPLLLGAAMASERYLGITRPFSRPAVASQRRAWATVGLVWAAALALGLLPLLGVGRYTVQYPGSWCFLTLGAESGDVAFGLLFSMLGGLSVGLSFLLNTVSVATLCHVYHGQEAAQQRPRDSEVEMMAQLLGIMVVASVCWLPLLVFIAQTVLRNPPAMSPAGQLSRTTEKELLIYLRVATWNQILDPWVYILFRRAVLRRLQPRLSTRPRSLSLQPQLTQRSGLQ

[3] = biological target: T1, Prostaglandin D2 receptor; test: Binding affinity against human recombinant […] D2 in presence of 0.5% human serum albumin

Row | SMILES | Ki [1] [µM] | Ki [2] [µM] | Ki [3] [µM]
1 | COC(=O)c1ccc(C[S+]([O-])c2nc3ccccc3n2Cc2ccc(Cl)cc2)cc1 (configuration not stated) | 0.55 | 3.1 | 1.5
2 | COC(=O)c1cccc(CSc2nc3ccccc3n2Cc2ccc(Cl)cc2)c1 | 1.1 | 9.3 | –
3 | Fc1ccc(CSc2nc3ccccc3n2Cc2ccc(Cl)cc2)cc1 | > 42 | 6.1 | –
4 | Cc1nc(-c2ccc(CSc3nc4ccccc4n3Cc3ccc(Cl)cc3)cc2)no1 | 0.096 | > 74 | –
5 | COC(=O)c1ccc(/C=C/c2nc3ccccc3n2Cc2ccc(Cl)cc2)cc1 | 0.038 | > 75 | 0.067
6 | CCOC(=O)c1cc(CSc2nc3ccccc3n2Cc2ccc(Cl)cc2)cc(C(=O)OCC)c1 | > 43 | > 71 | –
7 | COC(=O)c1ccc(Cc2nc3ccccc3n2Cc2ccc(Cl)cc2)cc1 | 6.2 | 4 | > 12
8 | Cc1noc(-c2ccc(CSc3nc4ccccc4n3Cc3ccc(Cl)cc3)cc2)n1 | 0.31 | > 74 | –
9 | COC(=O)c1ccc(Nc2nc3ccccc3n2Cc2ccc(Cl)cc2)cc1 | 1.5 | 0.9 | 5.4
10 | N#Cc1ccc(CSc2nc3ccccc3n2Cc2ccc(Cl)cc2)cc1 | 4.2 | 0.95 | –

Further molecules by falling Ki [1], results first:

Row | Ki [1] [µM] | Ki [2] [µM] | Ki [3] [µM] | SMILES
11 | 8 | 7 | 0.8 | COC(=O)c1ccc(-c2nc3ccccc3n2Cc2ccc(Cl)cc2)cc1
12 | 6.7 | 4.2 | – | Clc1ccc(Cn2c(SCc3ccccc3)nc3ccccc32)cc1
13 | 3.5 | 4.7 | – | O=C(O)c1ccc(CSc2nc3ccccc3n2Cc2ccc(Cl)cc2)cc1
14 | 2.6 | > 73 | – | FC(F)(F)c1ccc(CSc2nc3ccccc3n2Cc2ccc(Cl)cc2)cc1
15 | 1.2 | > 70 | – | NS(=O)(=O)c1ccc(CSc2nc3ccccc3n2Cc2ccc(Cl)cc2)cc1
16 | 1.1 | 2 | – | CS(=O)(=O)c1ccc(CSc2nc3ccccc3n2Cc2ccc(Cl)cc2)cc1
17 | 1.1 | 6 | – | COC(=O)c1ccc(CNc2nc3ccccc3n2Cc2ccc(Cl)cc2)cc1
18 | 0.8 | 2 | – | CN(C)C(=O)c1ccc(CSc2nc3ccccc3n2Cc2ccc(Cl)cc2)cc1
19 | 0.55 | > 73 | – | CSc1ccc(CSc2nc3ccccc3n2Cc2ccc(Cl)cc2)cc1
20 | 0.33 | 1.5 | – | COC(=O)Cc1ccc(CSc2nc3ccccc3n2Cc2ccc(Cl)cc2)cc1
21 | 0.3 | 3.8 | – | CC(=O)c1ccc(CSc2nc3ccccc3n2Cc2ccc(Cl)cc2)cc1
22 | 0.27 | 1.5 | – | CC(O)c1ccc(CSc2nc3ccccc3n2Cc2ccc(Cl)cc2)cc1 (configuration not stated)
23 | 0.14 | 11.9 | – | CC(C)(O)c1ccc(CSc2nc3ccccc3n2Cc2ccc(Cl)cc2)cc1
24 | 0.073 | 9.1 | 0.297 | COC(=O)c1ccc(CSc2nc3ccccc3n2Cc2ccc(Cl)cc2)cc1
25 | 0.024 | 2.2 | 0.137 | COC(=O)c1ccc(CCc2nc3ccccc3n2Cc2ccc(Cl)cc2)cc1
